The results in this text go back to US12448382B2, “Heterocyclic compounds for mediating tyrosine kinase 2 activity” (GUANGZHOU INNOCARE PHARMA TECH CO., LTD., priority 2019, dated 2025).

pIC50: −log10 of the molar value. Where two headings read alike, the source gives them in different places.

Assay [1] concerns the target T1, human recombinant JAK2 protein (Homo sapiens, UniProt O60674).
T1 construct: purchased Carna Biosciences 08-045
The assay is described as follows: JAK2 Inhibition Assay (HTRF kinase assay). The format is biochemical. Conditions: human recombinant JAK2, 2.5 μM ATP substrate solution. Here is the method:
The effect of the compounds of the present invention on the enzymatic activity of JAK2 was assessed by detecting the substrate phosphorylation level in a kinase reaction using the HTRF kinase assay detection kit (Cisbio, Cat. No. 62TK0PEC).
(§1) The experimental method is generally described below:
A reaction buffer contained the following components: an enzyme reaction buffer (1×), 5 mM MgCl2, 1 mM DTT and 0.01% Brij35 from the kit. A JAK2 kinase solution contained a human recombinant JAK2 protein (Carna Biosciences, 08-045) diluted in the reaction buffer to 0.15 ng/μL. A substrate reaction solution contained 2.5 μM ATP and 0.25 μM of a biotinylated tyrosine kinase substrate from the kit in the reaction buffer. A detection solution contained 0.1 ng/μL Eu^3+-labeled cage antibody (Cisbio, 61T66KLB) and 12.5 nM streptavidin-labeled XL665 (Cisbio, 610SAXLB) in the reaction buffer.
(§2) The test compound was dissolved in DMSO to 10 μM, followed by a serial 4-fold dilution with DMSO to a minimum concentration of 0.061 nM. Each concentration was further diluted 40-fold with the reaction buffer.
To a 384-well assay plate (Corning, 3674) were added 4 μL of compound solution and 2 μL of JAK2 kinase solution. The mixture was mixed and incubated at room temperature for 15 minutes, and then added with 4 μL of the substrate reaction solution. After further incubation at room temperature for 30 minutes, the reaction mixture was added with an equal volume of 10 μL detection solution and allowed to stand at room temperature for 30 minutes. An Envision plate reader (Perkin Elmer) was then used to measure the progress of the reaction at 620 nm and 665 nm. The ratio of absorbances at 665 nm and 620 nm was positively correlated with the degree of substrate phosphorylation, therefore the activity of JAK2 kinase was detected. In the experiment, the group without JAK2 kinase protein was treated as the 100% inhibition group, and the group with JAK2 kinase protein but not the test compound was treated as the 0% inhibition group. The percentage of inhibition on JAK2 kinase activity by the test compound was calculated using the following formula: Percentage of inhibition=100−100*(ratiocompound−ratio100% inhibition)/(ratio0% inhibition−ratio100% inhibition)
The IC50 value of the test compound was calculated from 8 concentration points using the XLfit softwere (ID Business Solutions Ltd., UK) by the following formula: Y=Bottom+(Top−Bottom)/(1+10^((log IC50−X)×slope factor))
Where Y was the percentage of inhibition, X was the logarithm of the concentration of the test compound. Bottom was the bottom plateau value of the S-shaped curve, Top was the top plateau value of the S-shaped curve, and slope factor was the slope coefficient of the curve.

Assay [2] deals with T2, human recombinant TYK2 protein (Homo sapiens, UniProt P29597).
T2 construct: purchased Carna Biosciences 08-147
T2 sequence (P29597 871-1187 limits assumed): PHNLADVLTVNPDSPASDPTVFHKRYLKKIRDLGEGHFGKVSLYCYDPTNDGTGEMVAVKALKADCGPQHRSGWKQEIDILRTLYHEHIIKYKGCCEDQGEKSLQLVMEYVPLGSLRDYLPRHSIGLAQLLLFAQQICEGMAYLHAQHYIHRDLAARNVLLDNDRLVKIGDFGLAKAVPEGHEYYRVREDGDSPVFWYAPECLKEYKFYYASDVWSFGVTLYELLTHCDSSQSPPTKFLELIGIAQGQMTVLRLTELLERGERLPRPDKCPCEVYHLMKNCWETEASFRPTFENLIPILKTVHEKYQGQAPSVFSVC
Nature of the assay: TYK2 Inhibition Assay (HTRF kinase assay). The format is biochemical. To be noted: human recombinant TYK2, 11.25 μM ATP substrate solution. Here is the method: The effect of the compounds of the present invention on the enzymatic activity of TYK2 was assessed by detecting the substrate phosphorylation level in a kinase reaction using the HTRF kinase assay detection kit (Cisbio, Cat. No. 62TK0PEC).
as §1
A reaction buffer contained the following components: an enzyme reaction buffer (1×), 5 mM MgCl2 mM DTT and 0.01% Brij35 from the kit. A TYK2 kinase solution contained human recombinant TYK2 protein (Carna Biosciences, 08-147) diluted in the reaction buffer to 0.25 ng/μL. A substrate reaction solution contained 11.25 μM ATP and 0.5 μM of a biotinylated tyrosine kinase substrate from the kit in the reaction buffer. A detection solution contained 0.1 ng/μL Eu^3+-labeled cage antibody (Cisbio, 61T66KLB) and 25 nM streptavidin-1 added XL665 (Cisbio, 610SAXLB) in the reaction buffer.
as §2
To a 384-well assay plate (Corning, 3674) were added 4 μL of compound solution and 2 μL of TYK2 kinase solution. The mixture was mixed and incubated at room temperature for 15 minutes, and then added with 4 μL of the substrate reaction solution. After further incubation at room temperature for 40 minutes, the reaction mixture was added with an equal volume of 10 μL detection solution and allowed to stand at room temperature for 30 minutes. An Envision plate reader (Perkin Elmer) was then used to measure the progress of the reaction at 620 nm and 665 nm. The ratio of absorbances at 665 nm and 620 nm was positively correlated with the degree of substrate phosphorylation, therefore the activity of TYK2 kinase was detected. In the experiment, the group without TYK2 kinase protein was treated as the 100% inhibition group, and the group with TYK2 kinase protein but not the test compound was treated as the 0% inhibition group. The percentage of inhibition on TYK2 kinase activity by the test, compound was calculated using the following formula: Percentage of inhibition=100−100*(ratiocompound−ratio100% inhibition)/(ratio0% inhibition−ratio100% inhibition)
The IC50 value of the test compound was calculated from 8 concentration points using the XLfit software (ID Business Solutions Ltd., UK) by the following formula: Y=Bottom+(Top−Bottom)/(1+10^((log IC50−X)slope factor))
(§3) Where Y was the percentage of inhibition, X was the logarithm of the concentration of the test compound, Bottom was the bottom plateau value of the S-shaped curve, Top was the top plateau value of the S-shaped curve, and slope factor was the slope coefficient of the curve.

For assay [3], the system named is IL-12-induced IFN-γ secretion in NK92 cells. The assay is described as follows: Inhibition of IL-12-induced IFN-γ Secretion in NK92 Cells (ELISA). To be noted: 24 hours incubation, 8 concentration points, read-out: IC50 (NK92_IL12/IFNγ). The format is cell-based, human. As to the method:
Inhibition of IL-12-induced IFN-γ Secretion in NK92 Cells
The effect of the compounds of the present invention on IFN-γ secretion induced by IL-12 in NK92 cells was evaluated by an enzyme-linked immunosorbent assay (ELISA).
IL-12 receptor is mainly expressed in activated T-cells, NK cells (NK92 is a NK cell line), DC cells, and B-cells. When binding to IL-12, it activates JAK2/TYK2 signal transduction pathway within NK cells and T lymphocytes, thereby inducing secretion of IFN-γ.
as §1
The test compound was dissolved in DMSO to 2.5 mM, followed by a serial 4-fold dilution with DMSO to a minimum concentration of […]. Each concentration was further diluted 50-fold with an FBS-free MEMα medium (Gibco, 12561-056).
NK92 cells (Nanjing Cobioer, CBP60980) were cultured in a complete MEMα medium containing 12.5% FBS (Ausbian, VS500T), 12.5% horse serum (Gibco, 16050-122), 0.02 mM folic acid (Sigma, F8758), 0.2 mM inositol (Sigma, 17850), 0.55 mM β-mercaptoethanol (Gibco, 21985-023), 200 U/mL IL-2 (R&D Systems, 202-1L), and 100 U/mL penicillin (Thermofisher, 15140122). When covering 80-90% of the culture container surface, the cells were dispersed and plated on a 96-well plate (Thermofisher, 167425) with 100,000 cells per well (80 μL of the complete MEMα medium without IL-2). The 96-well plate was then incubated overnight in a 37° C./5% CO2 incubator.
After overnight incubation, 10 μL of the test compound and 10 μL of 50 ng/mL IL-12 (R & D Systems, 219-1L) were added to each well and mix gently, and the 96-well plate was incubated in the 37° C./5% CO2 incubator for additional 24 hours. The plate as centrifuged at 800 rpm for 10 minutes at room temperature and 50 μL of the supernatant from each well was transferred to another 96-well plate (Sigma, CLS3695) coated with anti-IFN-γ antibody. The amount of IFN-γ secretion was detected following the instruction from the Human IFN-γ DuoSet ELISA kit (R & D Systems, DY285B). In the experiment, the group with IL-12 and the test compound being replaced with the MEMα medium was the non-stimulated control group (100% inhibition), and the group with IL-12 and 0.2% DMSO was the stimulated group (0% inhibition). The percentage of inhibition on IL-12 induced IFN-γ secretion in NK-92 cells by the test compound was calculated using the following formula: Percentage of inhibition=100−100*(signalcompound−signalnon-stimulated control)/(signalstimulated control−signalnon-stimulated control)
The IC50 value of the test compound was calculated front 8 concentration points using the XLfit software (ID Business Solutions Ltd., UK) by the following formula: Y=Bottom+(Top−Bottom)/(1+10^((log IC50−X)×slope factor))
as §3
For orientation: ELISA stands for enzyme-linked immunosorbent assay.

T1 sequence (O60674 826-1132 limits assumed): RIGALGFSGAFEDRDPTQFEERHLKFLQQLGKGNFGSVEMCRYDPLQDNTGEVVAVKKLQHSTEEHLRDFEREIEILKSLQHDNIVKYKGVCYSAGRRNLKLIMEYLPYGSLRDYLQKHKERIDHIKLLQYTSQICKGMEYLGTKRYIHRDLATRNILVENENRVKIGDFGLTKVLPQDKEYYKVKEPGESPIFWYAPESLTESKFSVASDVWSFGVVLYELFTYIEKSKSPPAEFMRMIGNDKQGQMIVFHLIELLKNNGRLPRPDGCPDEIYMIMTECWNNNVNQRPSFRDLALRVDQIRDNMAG

By IC50 is commonly meant the concentration needed to halve the response being measured. In the case of `Cn1cc(Nc2ncc(Cl)c(N3C[C@]4(C)CN(C(=O)C5CC5)C[C@]4(C)C3)n2)cn1` [Compound 12, ((3aR,6aS)-5-(5-chloro-2-((1-methyl-1H-pyrazol-4-yl)amino)pyrimidin-4-yl)-3a,6a-dimethylhexahydropyrrolo[3,4-c]pyrrol-2(1H)-yl)(cyclopropyl)methanone], the IC50 in assay [1] came to 4.2 nM; in assay [2], 1.1 nM. For the same compound, in assay [3] (Homo sapiens), the pIC50 was 6.38.
`C[C@@H](O)Cn1cc(Nc2ncc(Cl)c(N3C[C@]4(C)CN(C(=O)C5CC5)C[C@]4(C)C3)n2)cn1` [Compound 17, ((3aR,6aS)-5-(5-chloro-2-((1-((R)-2-hydroxypropyl)-1H-pyrazol-4-yl)amino)pyrimidin-4-yl)-3a,6a-dimethylhexahydropyrrolo[3,4-c]pyrrol-2(1H)-yl)(cyclopropyl)methanone]: the IC50 turned out to be 3.2 nM in assay [1] and 1.6 nM in assay [2]. Also, the pIC50 in assay [3] (Homo sapiens) is 5.98.
On to `Cn1cc(Nc2ncc(Cl)c(N3C[C@@H]4CN(C(=O)C5CC5)C[C@]4(C)C3)n2)cn1` [Compound 86, ((3aS,6aR)-5-(5-chloro-2-((1-methyl-1H-pyrazol-4-yl)amino)pyrimidin-4-yl)-3a-methylhexahydropyrrolo[3,4-c]pyrrol-2(1H)-yl)(cyclopropyl)methanone], for which the figures for the IC50 in assay [1] and in assay [2] were 1.7 nM and 0.3 nM, respectively. Moreover, in assay [3] (Homo sapiens), the pIC50 was 7.00.
With `Cc1ncc(CN2C[C@@]3(C)CN(c4nc(Nc5cnn(C)c5)ncc4Cl)C[C@@]3(C)C2)o1` [Compound 80, 5-chloro-4-((3aR,6aS)-3a,6a-dimethyl-5-((2-methyloxazol-5-yl)methyl)hexahydropyrrolo[3,4-c]pyrrol-2(1H)-yl)-N-(1-methyl-1H-pyrazol-4-yl)pyrimidin-2-amine], the IC50 in assay [1] worked out at 16 nM; in assay [2] it was 19 nM. Besides, in assay [3] (Homo sapiens), the pIC50 is 5.39.
Turning to “cyclopropyl((3aR,6aS)-3a,6a-dimethyl-5-(5-methyl-2((1-methyl-1H-pyrazol-4-yl)amino)pyriraidin-4-yl)hexahydropyrrolo[3,4-c]pyrrol-2(1H)-yl)methanone [Compound 24]”, the figures for the IC50 in assay [1] and in assay [2] were 20 nM and 4.1 nM, respectively. In addition, the pIC50 in assay [3] was 5.97.
In the case of `Cn1cc(Nc2ncc(Cl)c(N3C[C@@H]4CN(C(=O)CC#N)C[C@]4(C)C3)n2)cn1` [Compound 88, 3-((3aS,6aR)-5-(5-chloro-2-((1-methyl-1H-pyrazol-4-yl)amino)pyrimidin-4-yl)-3a-methylhexahydropyrrolo[3,4-c]pyrrol-2(1H)-yl)-3-oxopropanenitrile], the IC50 in assay [1] is 0.5 nM; in assay [2] it was 0.2 nM. For the same compound, in assay [3] (Homo sapiens), the pIC50 was 7.17.
For `CCC(=O)N1C[C@@]2(C)CN(c3nc(Nc4cnn(C)c4)ncc3Cl)C[C@@]2(C)C1` [Compound 36, 1-((3aR.,6aS)-5-(5-chloro-2-((1-methyl-1H-pyrazol-4-yl)amino)pyrimidin-4-yl)-3a,6a-dimethylhexahydropyrrolo[3,4-c]pyrrol-2(1H)-yl)propan-1-one] the same measures were 4.1 nM, 1.8 nM and 6.23.
Regarding `Cn1cc(Nc2ncc(Cl)c(N3C[C@]4(C)CN(c5ccccn5)C[C@]4(C)C3)n2)cn1` [Compound 54, 5-chloro-4-((3aR,6aS)-3a,6a-dimethyl-5-(pyridin-2-yl)hexahydropyrrolo[3,4-c]pyrrol-2(1H)-yl)-N-(1-methyl-1H-pyrazol-4-yl)pyrimidin-2-amine], the 50% inhibitory concentration (IC50) stood at 0.9 nM in assay [1] and 0.2 nM in assay [2]. Moreover, the pIC50 in assay [3] (Homo sapiens) is 6.03.
For `CC(=O)N1C[C@@]2(C)CN(c3nc(Nc4cnn(C)c4)ncc3Cl)C[C@@]2(C)C1` [Compound 19, 1-((3aR,6aS)-5-(5-chloro-2-((1-methyl-1H-pyrazol-4-yl)amino)pyrimidin-4-yl)-3a,6a-dimethylhexahydropyrrolo[3,4-c]pyrrol-2(1H)-yl)ethan-1-one], the IC50 in assay [1] amounted to 8.8 nM; in assay [2], 14 nM. In addition, the pIC50 in assay [3] (Homo sapiens) was 6.15.
